In US11672787B2, “Compounds as mPGES-1 inhibitors” (Khondrion IP B.V., priority 2017, dated 2023):
Counter-ions that a name gives are not always drawn. Blank lines part the entries; values can stand above or below the molecule they belong to.

Columns and labels:
mPGES-1 = target: T1, mPGES-1 (Mus musculus, UniProt Q9JM51); test: Microsomal PGES activity: conversion of PGH2 to PGE2 by microsomal fractions of LPS-treated RAW 264.7 cells; assay type: biochemical, murine; conditions: for IC50: microsomal fraction of RAW 264.7 cells treated 24 hours with LPS 1 μg/mL, conversion of PGH2 to PGE2, read-out: IC50 (inhibition of mPGES-1 enzyme activity); for mPGES-1 activity in purified microsomes: 30 minutes
T1 construct: endogenous in cells; host or cells: RAW 264.7 cells treated 24 h with 1 ug/mL LPS; 100,000 g microsomal pellet
T1 sequence (Q9JM51 1-153): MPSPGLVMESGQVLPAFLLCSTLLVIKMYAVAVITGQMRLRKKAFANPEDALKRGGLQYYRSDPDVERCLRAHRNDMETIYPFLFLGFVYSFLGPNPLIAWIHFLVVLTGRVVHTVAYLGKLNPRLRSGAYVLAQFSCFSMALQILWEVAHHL
Method: FIG. 6. mPGES-1 activity was assayed as conversion of PGH2 to PGE2 by microsomal fractions of RAW 264.7 cells treated for 24 hours with LPS 1 μg/mL to increase mPGES-1 expression. The microsomal fraction was exposed to increasing concentrations of compound to be tested, or 3 μM of know mPGES-1 inhibitors MK866 or PF9184 as positive controls. PGE2 level was normalized on the vehicle treated microsomal samples (100%). (A) compound I-IVb-X; (B) compound I-IVb-AE; (C) compound I-IVb-A-HCl; (D) compound I-IVb-I.
PGES activity was measured by assessment of the conversion of PGH2 to PGE2. In brief, after 24 hours incubation with 1 μg/mL LPS the cells were harvested and lysed by sonication (three times for 10 seconds each, at 1 min intervals) in 300 μl of 1 M Tris-HCl (pH 8.0). After centrifugation of the lysate at 12,000 g for 10 min at 4° C., the supernatant was collected and further centrifuged at 100,000 g for 1 h at 4° C. The pellets (microsomal membranes) were resuspended in 100 μl of 0.1M Tris-HCl, pH 8.0, containing protease inhibitors) and subjected to measurement of microsomal PGES activity. For measurement of PGES activity, an aliquot of each sample equivalent to 50 μg of protein was incubated with 2 μg of PGH2 for 60 s at 24° C. in 0.1 ml of 1 M Tris-HCl containing 2 mM glutathione (Sigma-Aldrich) and 14 μM indomethacin, in the absence or presence of the tested compounds. The reaction was terminated by the addition of 100 mM FeCl2, and further incubated at 20-25° C. for 15 min. After centrifugation of the reaction mixture, the PGE2 concentration in the supernatant was measured with the PGE2 high sensitivity EIA kit (Enzo Life Science) according to manufacturer's instructions.
RAW 264.7 macrophage cells were treated with the inflammatory stimulus LPS to increase the expression of mPGES-1. After 24 hours incubation the microsomes were isolated and exposed to increasing concentration of compound I-IVb-X or a single concentration of previously described mPGES-1 inhibitors MK866 and PF9184 for 30 minutes. The activity of mPGES-1 was then assayed in the microsomes fraction as the conversion of PGH2 to PGE2.
Using the methods as described in Example 1, additional compounds were tested. Table 1 provides an overview of the compounds that were tested, along with corresponding IC50 values. FIGS. 6B, 6C, and 6D show corresponding inhibition curves for I-IVb-AE, I-IVb-A-HCl, and I-IVb-I, respectively.

[1] = test system: RAW 264.7 murine macrophage cells; test: Prostaglandin levels (ELISA) in supernatant of LPS-stimulated RAW 264.7 cells; assay type: cell-based; conditions: 1 μg/mL LPS, 24 hours, increasing concentrations
Method: FIG. 2. (A-C) Levels of prostaglandins (PG) PGE2 (A), PGD2 (B) and 6-keto PGF1a (C) in supernatant of RAW 264.7 murine macrophage cells exposed for 24 hours to vehicle or 1 μg/mL lipopolysaccharide (LPS), normalized on vehicle. (D-F) Levels of PGE2, PGD2 and 6-keto PGF1a in supernatant of RAW 264.7 murine macrophage cells exposed for 24 hours to vehicle or 1 μg/mL LPS, alone (set as 100%) or in combination with increasing concentrations of compound I-IVb-X (a compound of general structure (I) wherein T is of general structure (IVb), in the S,R-configuration, and wherein as per compound X the following apply: L=L^19; R^1═H; R^2—R^2′=L^3; R^3═H; indicated as KH) (D), non-selective COX inhibitor indomethacin (E) or COX-2 inhibitor celecoxib (F).
RAW264.7 cells (Sigma-Aldrich, St-Louis) were maintained in DMEM (Thermo Fisher Scientific) containing 10% FBS (Greiner Bio-one), and antibiotics (100 U/ml penicillin, 100 μg/ml streptomycin) under a humidified atmosphere of 5% CO2 at 37° C. The cells were grown to 80% confluence, scraped and then cultured in either 96-well plates (2×10^4 cells/well) or six-well plates (4×10^5 cells/well) for 6-24 hours before an experiment.
(§1) The concentration of the PGE2, PGD2 and 6-keto-PGF1α in culture medium was determined by Enzyme-Linked Immuno Sorbent Assay (ELISA) using, respectively, the PGE2 high sensitivity EIA kit (Enzo Life Science), the Prostaglandin D2-MOX ELISA Kit (Cayman Chemicals) and the 6-keto Prostaglandin F1α ELISA Kit (Cayman Chemicals), according to the manufacturer's instructions. Samples (100 μl) of culture medium from each well were harvested and diluted with the assay buffer.
RAW 264.7 macrophage cells were treated with the inflammatory stimulus LPS alone or in combination with increasing concentrations of compound I-IVb-X (a compound of general structure (I) wherein T is of general structure (IVb), in the S,R-configuration, and wherein as per compound X the following apply: L=L^19; R^1═H; R^2—R^2′=L^3; R^3═H), the NSAID indomethacin or the Coxib Celecoxib. After 24 hours incubation the levels of PGE2, PGD2 and 6-keto PGF1a were quantified in the cell supernatant by ELISA. […] Similar results were obtained with compound I-IVb-X in human primary skin fibroblasts.

[2] = test system: human primary skin fibroblasts; test: Prostaglandin levels (ELISA) in supernatant of LPS- or IL-1β-stimulated human primary skin fibroblasts; assay type: cell-based; conditions: 24 hours
Method: FIG. 3. (A-B) Levels of PGE2 (A) and PGD2 (B) in supernatant of human primary skin fibroblasts exposed for 24 hours to vehicle, 1 μg/mL LPS or 1 μg/mL Interleukin-1β (IL-1β), normalized on vehicle. (C-D) Levels of PGE2 and PGD2 in supernatant of human primary skin fibroblasts exposed for 24 hours to 1 μg/mL LPS (C) or 1 μg/mL IL-1β (D) alone (set as 100%) or in combination with increasing concentrations of compound I-IVb-X (indicated as KH).
The cells were maintained in M199, HEPES (Thermo Fischer Scientific) containing 10% FBS (#758093, Greiner Bio-one), 100 IU/ml penicillin and 100 μg/ml streptomycin (#30-002-CI, Corning) under a humidified atmosphere of 5% CO2 at 37° C. The cells were passaged by trypsinization every 4-5 days until they reached the passage number 20, and then discarded. The cells were grown to 80% confluence, trypsinized and then cultured in 96-well plates (4×10^3 cells/well) 24 hours before an experiment.
as §1, with “Samples (100 μl) of culture medium from each well were harvested and diluted with the assay buffer.” left out

[3] = single concentration (3 μM), positive controls

IC50 (mPGES-1): 18 nM
SMILES: CC1=C(C)C(=O)C(CC[C@](C)(O)C(=O)N[C@H]2CC[C@H](N)CC2)=C(C)C1=O [I-IVb-AE]

IC50 (mPGES-1): 1050 nM
SMILES: CC1=C(C)C(=O)C(CC[C@](C)(O)C(=O)Nc2ccc(CN)cc2)=C(C)C1=O [I-IVb-AJ-HCl]

IC50 (mPGES-1): 1120 nM
SMILES: CC1=C(C)C(=O)C(CCC(C)(O)C(=O)NCCN(C)C)=C(C)C1=O (stereo not shown) [I-IVb-I]

mPGES-1 activity in purified microsomes (mPGES-1; [3]): decreased
SMILES: CC(C)c1ccc2c(c1)c(SC(C)(C)C)c(CC(C)(C)C(=O)O)n2Cc1ccc(Cl)cc1 [MK866, reference compound]

mPGES-1 activity in purified microsomes (mPGES-1; [3]): decreased
SMILES: O=C(Nc1ccc(-c2ccc(Cl)c(Cl)c2)cc1)C1=C(O)c2ccccc2S(=O)(=O)N1 [PF9184, reference compound]

The remaining lines, values behind:

SMILES: CC1=C(C)C(=O)C(CC[C@](C)(O)C(=O)N2CCNCC2)=C(C)C1=O [I-IVb-A-HCl]
IC50 (mPGES-1): 1020 nM

SMILES: CC1=C(C)C(=O)C(CC[C@](C)(O)C(=O)N2CCC(NC(=O)[C@H](C)N)CC2)=C(C)C1=O [I-IVb-AB-HCl]
IC50 (mPGES-1): 238 nM

SMILES: CC1=C(C)C(=O)C(CC[C@](C)(O)C(=O)N[C@H]2CN3CCC2CC3)=C(C)C1=O [I-IVb-AI-HCl]
IC50 (mPGES-1): 726 nM

SMILES: CC1=C(C)C(=O)C(CCC(C)(O)C(=O)N[C@@H](CCCN)C(=O)O)=C(C)C1=O (stereo partly shown) [I-IVb-N]
IC50 (mPGES-1): 10.4 nM

SMILES: CC1=C(C)C(=O)C(CC[C@](C)(O)C(=O)N[C@@H]2CCCNC2)=C(C)C1=O [I-IVb-X]
mPGES-1 activity in purified microsomes (mPGES-1; increasing concentration of compound): decreased | IC50 (mPGES-1): 458 nM | level of 6-keto PGF1a in cell supernatant [1]: no effect | level of PGD2 in cell supernatant [1]: no effect | level of PGE2 in cell supernatant [1]: dose-dependently reduce | level of PGE2 in supernatant ([2]; 1 μg/mL IL-1β): efficiently reduce | level of PGE2 in supernatant ([2]; 1 μg/mL LPS): efficiently reduce

SMILES: COc1ccc2c(c1)c(CC(=O)O)c(C)n2C(=O)c1ccc(Cl)cc1 [indomethacin, reference compound]
level of 6-keto PGF1a in cell supernatant [1]: dose-dependently reduced | level of PGD2 in cell supernatant [1]: dose-dependently reduced | level of PGE2 in cell supernatant [1]: dose-dependently reduced
